This passage reports inhibition results from ChEMBL document CHEMBL5653615 (J Biol Chem, 2013).

Experiment [1] has as its target Tyrosine-protein kinase FRK (Homo sapiens) (UniProt P42685). Briefly: Inhibition of human FRK at 500 nM by HotSpot assay relative to control.
The target of experiment [2] is Calcium/calmodulin-dependent protein kinase type 1 (Homo sapiens) (UniProt Q14012). Briefly: Inhibition of human CAMK1a at 500 nM by HotSpot assay relative to control.
The target of experiment [3] is Mitogen-activated protein kinase kinase kinase 9 (Homo sapiens) (UniProt P80192). The experiment is described as follows: Inhibition of human MAP3K9 at 500 nM by HotSpot assay relative to control.
Chain of Mitogen-activated protein kinase kinase kinase 9 (Homo sapiens) (P80192 whole entry, looked up): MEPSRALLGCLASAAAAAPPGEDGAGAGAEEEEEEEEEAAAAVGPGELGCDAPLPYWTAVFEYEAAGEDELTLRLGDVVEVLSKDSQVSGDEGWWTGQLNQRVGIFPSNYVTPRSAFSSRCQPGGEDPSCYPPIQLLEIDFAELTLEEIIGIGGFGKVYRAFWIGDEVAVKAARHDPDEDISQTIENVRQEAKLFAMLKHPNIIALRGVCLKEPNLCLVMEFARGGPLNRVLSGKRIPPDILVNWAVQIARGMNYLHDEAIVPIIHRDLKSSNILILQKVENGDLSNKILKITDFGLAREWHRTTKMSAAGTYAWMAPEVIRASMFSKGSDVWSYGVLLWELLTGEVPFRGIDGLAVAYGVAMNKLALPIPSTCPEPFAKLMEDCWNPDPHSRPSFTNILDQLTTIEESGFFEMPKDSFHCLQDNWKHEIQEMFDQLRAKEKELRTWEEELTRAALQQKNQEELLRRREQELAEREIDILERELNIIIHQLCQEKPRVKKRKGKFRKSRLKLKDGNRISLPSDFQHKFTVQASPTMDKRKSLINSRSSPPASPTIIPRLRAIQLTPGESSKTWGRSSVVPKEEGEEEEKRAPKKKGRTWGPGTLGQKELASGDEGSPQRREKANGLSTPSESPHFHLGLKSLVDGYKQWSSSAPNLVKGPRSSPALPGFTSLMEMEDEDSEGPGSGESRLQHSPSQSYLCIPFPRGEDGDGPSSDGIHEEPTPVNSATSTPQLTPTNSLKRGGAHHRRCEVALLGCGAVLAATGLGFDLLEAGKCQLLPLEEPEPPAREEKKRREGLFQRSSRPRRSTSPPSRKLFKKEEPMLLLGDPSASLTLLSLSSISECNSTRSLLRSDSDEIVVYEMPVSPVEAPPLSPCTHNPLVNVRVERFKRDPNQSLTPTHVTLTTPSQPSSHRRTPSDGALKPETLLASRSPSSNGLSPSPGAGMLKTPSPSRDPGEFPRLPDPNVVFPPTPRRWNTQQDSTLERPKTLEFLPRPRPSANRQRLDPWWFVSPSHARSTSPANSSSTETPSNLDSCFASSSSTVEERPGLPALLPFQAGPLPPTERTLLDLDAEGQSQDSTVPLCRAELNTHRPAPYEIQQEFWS
Experiment [4] has as its target Tyrosine-protein kinase ABL2 (Homo sapiens) (UniProt P42684). The experiment is described as follows: Inhibition of human ABL2 at 500 nM by HotSpot assay relative to control.
For experiment [5], the target named is T1, Tyrosine-protein kinase JAK3 (Homo sapiens) (UniProt P52333).
T1 sequence (whole entry): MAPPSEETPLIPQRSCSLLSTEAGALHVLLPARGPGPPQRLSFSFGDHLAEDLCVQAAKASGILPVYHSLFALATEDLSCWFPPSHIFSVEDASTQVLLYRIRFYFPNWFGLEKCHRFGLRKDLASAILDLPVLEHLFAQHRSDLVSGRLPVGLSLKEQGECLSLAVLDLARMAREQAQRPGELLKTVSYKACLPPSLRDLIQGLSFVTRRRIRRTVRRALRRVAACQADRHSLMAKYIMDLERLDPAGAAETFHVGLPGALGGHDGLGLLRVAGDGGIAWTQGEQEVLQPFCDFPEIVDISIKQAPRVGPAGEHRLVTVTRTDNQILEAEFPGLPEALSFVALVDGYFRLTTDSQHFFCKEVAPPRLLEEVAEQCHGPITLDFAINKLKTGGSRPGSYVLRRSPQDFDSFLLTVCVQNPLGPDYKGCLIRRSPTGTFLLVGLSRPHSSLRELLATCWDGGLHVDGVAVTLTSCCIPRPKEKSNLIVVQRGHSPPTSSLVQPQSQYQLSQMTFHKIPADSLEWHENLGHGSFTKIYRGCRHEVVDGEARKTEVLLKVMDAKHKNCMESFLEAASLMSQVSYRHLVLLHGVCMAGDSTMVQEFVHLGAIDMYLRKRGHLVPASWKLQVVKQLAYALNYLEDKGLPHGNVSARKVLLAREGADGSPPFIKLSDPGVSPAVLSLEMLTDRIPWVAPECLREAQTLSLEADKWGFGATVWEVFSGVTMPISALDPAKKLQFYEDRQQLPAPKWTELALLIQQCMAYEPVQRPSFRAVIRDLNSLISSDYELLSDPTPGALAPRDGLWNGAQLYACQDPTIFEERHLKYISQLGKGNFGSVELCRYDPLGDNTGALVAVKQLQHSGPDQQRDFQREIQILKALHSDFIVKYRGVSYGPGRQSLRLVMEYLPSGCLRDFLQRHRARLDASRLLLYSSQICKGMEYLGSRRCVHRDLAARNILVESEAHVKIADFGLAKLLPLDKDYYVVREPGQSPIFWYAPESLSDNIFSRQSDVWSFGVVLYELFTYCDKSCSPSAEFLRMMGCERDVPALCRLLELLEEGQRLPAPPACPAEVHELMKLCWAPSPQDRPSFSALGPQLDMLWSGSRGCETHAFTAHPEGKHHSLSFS
Briefly: Inhibition of human JAK3 at 500 nM by HotSpot assay relative to control.

The target of experiment [6] is MAP kinase-activated protein kinase 2 (Homo sapiens) (UniProt P49137). Briefly: Inhibition of human MAPKAPK2 at 500 nM by HotSpot assay relative to control.
In experiment [7] the target is Calcium/calmodulin-dependent protein kinase type II subunit delta (Homo sapiens) (UniProt Q13557). The experiment is described as follows: Inhibition of human CAMK2d at 500 nM by HotSpot assay relative to control.
Chain of Calcium/calmodulin-dependent protein kinase type II subunit delta (Homo sapiens) (Q13557 whole entry, the tested form may be a part): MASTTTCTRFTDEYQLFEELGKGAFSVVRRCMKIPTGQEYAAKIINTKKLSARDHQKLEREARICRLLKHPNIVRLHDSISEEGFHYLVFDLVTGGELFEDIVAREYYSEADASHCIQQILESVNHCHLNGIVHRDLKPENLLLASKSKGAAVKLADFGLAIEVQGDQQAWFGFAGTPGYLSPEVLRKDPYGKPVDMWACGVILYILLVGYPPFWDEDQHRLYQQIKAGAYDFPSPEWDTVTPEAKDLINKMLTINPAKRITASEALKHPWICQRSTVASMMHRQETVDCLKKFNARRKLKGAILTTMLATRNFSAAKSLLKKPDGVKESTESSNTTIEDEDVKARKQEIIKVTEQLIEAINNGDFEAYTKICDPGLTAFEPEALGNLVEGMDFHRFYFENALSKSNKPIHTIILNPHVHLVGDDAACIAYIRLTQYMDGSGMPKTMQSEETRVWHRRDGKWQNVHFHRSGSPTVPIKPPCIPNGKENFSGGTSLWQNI
The target in experiment [8] is PAS domain-containing serine/threonine-protein kinase (Homo sapiens) (UniProt Q96RG2). The experiment is described as follows: Inhibition of human PASK at 500 nM by HotSpot assay relative to control.
Experiment [9] deals with Epidermal growth factor receptor (Homo sapiens) (UniProt P00533). The experiment is described as follows: Inhibition of human EGFR at 500 nM by HotSpot assay relative to control.
Chain of Epidermal growth factor receptor (Homo sapiens) (P00533 whole entry): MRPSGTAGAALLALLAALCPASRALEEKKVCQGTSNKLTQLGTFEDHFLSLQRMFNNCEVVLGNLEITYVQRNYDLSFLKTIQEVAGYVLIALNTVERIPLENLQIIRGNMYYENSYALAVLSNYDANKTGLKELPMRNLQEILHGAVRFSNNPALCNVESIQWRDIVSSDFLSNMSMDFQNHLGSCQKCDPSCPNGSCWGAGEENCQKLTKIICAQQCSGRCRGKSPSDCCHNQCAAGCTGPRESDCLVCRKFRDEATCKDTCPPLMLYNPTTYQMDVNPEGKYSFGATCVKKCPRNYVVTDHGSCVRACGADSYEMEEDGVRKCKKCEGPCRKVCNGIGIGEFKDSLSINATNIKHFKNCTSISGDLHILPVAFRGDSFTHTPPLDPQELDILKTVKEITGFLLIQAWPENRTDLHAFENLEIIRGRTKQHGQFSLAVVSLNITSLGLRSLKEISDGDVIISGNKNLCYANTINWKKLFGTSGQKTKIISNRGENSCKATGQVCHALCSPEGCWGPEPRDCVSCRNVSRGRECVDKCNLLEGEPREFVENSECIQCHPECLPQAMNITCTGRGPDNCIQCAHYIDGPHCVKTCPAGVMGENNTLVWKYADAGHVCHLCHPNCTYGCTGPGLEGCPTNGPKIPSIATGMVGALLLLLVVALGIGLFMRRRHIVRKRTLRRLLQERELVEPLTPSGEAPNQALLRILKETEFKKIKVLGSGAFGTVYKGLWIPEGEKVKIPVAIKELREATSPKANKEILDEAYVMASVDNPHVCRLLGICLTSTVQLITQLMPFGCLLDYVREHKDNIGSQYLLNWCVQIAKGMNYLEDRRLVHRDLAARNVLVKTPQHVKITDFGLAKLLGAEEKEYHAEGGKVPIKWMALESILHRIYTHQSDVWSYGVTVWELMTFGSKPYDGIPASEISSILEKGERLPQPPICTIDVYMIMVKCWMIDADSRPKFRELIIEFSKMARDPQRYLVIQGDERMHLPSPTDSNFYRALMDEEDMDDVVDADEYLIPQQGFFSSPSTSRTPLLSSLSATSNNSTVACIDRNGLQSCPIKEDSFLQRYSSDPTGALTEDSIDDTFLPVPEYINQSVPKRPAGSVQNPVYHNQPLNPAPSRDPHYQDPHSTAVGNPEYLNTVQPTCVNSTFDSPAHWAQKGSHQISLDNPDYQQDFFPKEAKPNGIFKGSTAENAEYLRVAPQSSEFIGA
The target of experiment [10] is MAP kinase-activated protein kinase 3 (Homo sapiens) (UniProt Q16644). The experiment is described as follows: Inhibition of human MAPKAPK3 at 500 nM by HotSpot assay relative to control.
Chain of MAP kinase-activated protein kinase 3 (Homo sapiens) (Q16644 whole entry, looked up): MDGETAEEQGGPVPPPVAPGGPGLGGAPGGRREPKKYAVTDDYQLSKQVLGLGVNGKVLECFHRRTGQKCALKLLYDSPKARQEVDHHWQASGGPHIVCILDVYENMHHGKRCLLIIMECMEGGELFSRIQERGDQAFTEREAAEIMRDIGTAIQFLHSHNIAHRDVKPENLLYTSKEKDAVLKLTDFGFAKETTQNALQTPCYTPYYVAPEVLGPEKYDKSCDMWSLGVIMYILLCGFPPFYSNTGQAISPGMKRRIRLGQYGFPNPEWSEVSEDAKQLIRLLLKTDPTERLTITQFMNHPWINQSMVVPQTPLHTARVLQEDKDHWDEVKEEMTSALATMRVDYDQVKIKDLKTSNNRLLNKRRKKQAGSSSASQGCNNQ
The target in experiment [11] is CDK3/Cyclin E (Homo sapiens) (UniProt P24864+Q00526). Briefly: Inhibition of human CDK3/cyclin E at 500 nM by HotSpot assay relative to control. Type of experiment: protein-complex assay.
Experiment [12] deals with Ribosomal protein S6 kinase beta-1 (Homo sapiens) (UniProt P23443). The experiment is described as follows: Inhibition of human RPS6KB1 at 500 nM by HotSpot assay relative to control.
The target in experiment [13] is Receptor tyrosine-protein kinase erbB-2 (Homo sapiens) (UniProt P04626). The experiment is described as follows: Inhibition of human ERBB2 at 500 nM by HotSpot assay relative to control.
Experiment [14] has as its target Mitogen-activated protein kinase 3 (Homo sapiens) (UniProt P27361). The experiment is described as follows: Inhibition of human ERK1 at 500 nM by HotSpot assay relative to control.
Experiment [15] has as its target T2, Activin receptor type-1B (Homo sapiens) (UniProt P36896).
T2 sequence (whole entry): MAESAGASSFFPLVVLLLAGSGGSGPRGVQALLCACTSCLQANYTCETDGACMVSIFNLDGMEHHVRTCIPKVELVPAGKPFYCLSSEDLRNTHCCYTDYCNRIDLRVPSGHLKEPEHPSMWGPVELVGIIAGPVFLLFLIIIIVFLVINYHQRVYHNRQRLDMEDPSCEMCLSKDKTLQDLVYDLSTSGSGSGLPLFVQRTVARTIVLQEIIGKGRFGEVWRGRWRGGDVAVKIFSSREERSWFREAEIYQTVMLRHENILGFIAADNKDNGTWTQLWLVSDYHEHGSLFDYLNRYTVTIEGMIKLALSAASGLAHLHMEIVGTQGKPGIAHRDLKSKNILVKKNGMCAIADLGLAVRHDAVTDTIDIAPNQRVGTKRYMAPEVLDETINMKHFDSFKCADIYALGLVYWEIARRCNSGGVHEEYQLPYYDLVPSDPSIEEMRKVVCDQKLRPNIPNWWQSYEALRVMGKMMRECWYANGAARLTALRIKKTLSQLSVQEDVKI
The experiment is described as follows: Inhibition of human ALK4 at 500 nM by HotSpot assay relative to control.

Experiment [16] deals with Mitogen-activated protein kinase 8 (Homo sapiens) (UniProt P45983). The experiment is described as follows: Inhibition of human JNK1 at 500 nM by HotSpot assay relative to control.
Experiment [17] has as its target Serine/threonine-protein kinase Nek4 (Homo sapiens) (UniProt P51957). Briefly: Inhibition of human NEK4 at 500 nM by HotSpot assay relative to control.

Chain of Calcium/calmodulin-dependent protein kinase type 1 (Homo sapiens) (Q14012 whole entry, looked up): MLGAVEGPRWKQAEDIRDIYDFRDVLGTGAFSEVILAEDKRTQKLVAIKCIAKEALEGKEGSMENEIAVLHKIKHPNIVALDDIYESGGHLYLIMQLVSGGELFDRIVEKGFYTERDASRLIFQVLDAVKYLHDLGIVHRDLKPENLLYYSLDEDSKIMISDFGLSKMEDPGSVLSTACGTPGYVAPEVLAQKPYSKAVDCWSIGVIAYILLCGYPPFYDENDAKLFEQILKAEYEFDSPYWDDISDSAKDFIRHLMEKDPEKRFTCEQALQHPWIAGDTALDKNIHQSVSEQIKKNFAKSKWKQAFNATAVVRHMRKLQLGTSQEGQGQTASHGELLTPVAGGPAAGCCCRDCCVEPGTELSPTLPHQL
Chain of Tyrosine-protein kinase ABL2 (Homo sapiens) (P42684 whole entry): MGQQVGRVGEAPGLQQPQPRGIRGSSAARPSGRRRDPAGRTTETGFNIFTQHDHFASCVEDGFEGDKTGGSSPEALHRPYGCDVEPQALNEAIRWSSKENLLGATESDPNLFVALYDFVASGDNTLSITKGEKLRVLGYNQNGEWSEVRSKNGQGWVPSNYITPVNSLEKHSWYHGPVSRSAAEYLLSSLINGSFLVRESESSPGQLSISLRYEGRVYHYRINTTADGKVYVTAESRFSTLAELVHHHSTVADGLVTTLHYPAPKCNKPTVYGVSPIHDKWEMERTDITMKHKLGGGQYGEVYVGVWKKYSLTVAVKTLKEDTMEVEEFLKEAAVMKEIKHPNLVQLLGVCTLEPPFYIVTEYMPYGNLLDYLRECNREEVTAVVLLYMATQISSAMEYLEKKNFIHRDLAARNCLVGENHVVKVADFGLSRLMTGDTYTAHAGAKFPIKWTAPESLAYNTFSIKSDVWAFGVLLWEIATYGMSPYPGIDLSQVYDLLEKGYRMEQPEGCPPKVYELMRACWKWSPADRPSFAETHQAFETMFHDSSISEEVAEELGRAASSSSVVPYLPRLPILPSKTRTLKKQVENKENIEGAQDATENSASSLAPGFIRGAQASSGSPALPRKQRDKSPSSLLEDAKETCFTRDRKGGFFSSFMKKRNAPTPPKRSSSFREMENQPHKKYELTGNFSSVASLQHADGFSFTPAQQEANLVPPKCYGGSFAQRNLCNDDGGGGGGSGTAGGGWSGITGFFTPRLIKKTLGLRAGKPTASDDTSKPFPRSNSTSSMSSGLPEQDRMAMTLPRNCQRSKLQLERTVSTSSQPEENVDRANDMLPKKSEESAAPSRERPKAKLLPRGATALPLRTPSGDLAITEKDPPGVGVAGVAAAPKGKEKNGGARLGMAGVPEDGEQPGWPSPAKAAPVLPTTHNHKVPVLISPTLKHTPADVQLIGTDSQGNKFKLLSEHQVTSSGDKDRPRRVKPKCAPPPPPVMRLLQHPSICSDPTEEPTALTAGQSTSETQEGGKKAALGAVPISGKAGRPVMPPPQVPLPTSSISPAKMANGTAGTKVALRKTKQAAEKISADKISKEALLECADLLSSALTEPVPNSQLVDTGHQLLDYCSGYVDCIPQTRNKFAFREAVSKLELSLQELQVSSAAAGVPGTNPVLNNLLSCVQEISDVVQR

For the compound `Oc1n[nH]c2nnc(-c3c(-c4ccccc4)nn4ccccc34)cc12`, the inhibition in experiment [1] was -4.01%; in [2], 0.02%; in experiment [3] it was -2.83%; in experiment [4] it was 3.05%; in experiment [5], -3.22%; in [6], -5.6%. For the same compound, the inhibition was 2.55% in experiment [7]; -0.26% in experiment [8]; 10% in [9]; -0.14% in experiment [10]; 1.33% in experiment [11]; -2.37% in [12]. Moreover, the inhibition in experiment [13] was -4.85%; in experiment [14], -2.01%; in experiment [15], 0.15%; in experiment [16], 16.7%; in experiment [17], 5.04%.
Take `Nc1n[nH]c2nnc(-c3c(-c4ccccc4)nn4ccccc34)cc12`: the inhibition in [1] was -1.32%; in experiment [2], -2.35%; in experiment [3] it was 0.07%; in experiment [4], 42.5%; in experiment [5], -4.59%; in [6], -5.26%. The inhibition in experiment [7] is 3.52%; in experiment [8], 0.21%; in [9], 16.1%; in [10], -2.71%; in [11], 3.23%; in [12], 2.28%. The inhibition was -4.95% in experiment [13]; 34.2% in experiment [14]; -6.71% in experiment [15]; 1.96% in experiment [16]; 11.6% in experiment [17].

Usually inhibition stands for the change of the read-out against control, counted positive when it falls.
